Measured values as given in patent US20210186962A1, “METHODS OF SCHIZOPHRENIA TREATMENT” (INTRA-CELLULAR THERAPIES, INC., priority 2019, published 2021).

Columns and labels:
[1] = target: (Homo sapiens, UniProt Q8TCC7); test: In vitro transporter inhibition; assay type: in vitro ADME
CYP2C9 = CYP2C9 (Homo sapiens, UniProt P11712); test: In vitro CYP inhibition; assay type: in vitro ADME
CYP2C19 = CYP2C19 (Homo sapiens, UniProt P33261); test: In vitro CYP inhibition; assay type: in vitro ADME
muscarinic receptors = test: Receptor binding, muscarinic; settings: at 100 nM
[2] = tested on: UGT 1A1, 1A4, 2B15; AKR 1C1, 1B10, 1C4; CYP 3A4, 2C8, 1A2; test: In vitro studies of enzymes involved in metabolism; assay type: in vitro ADME
OATP1B1 = OATP1B1 (Homo sapiens, UniProt Q9Y6L6); test: In vitro transporter inhibition; assay type: in vitro ADME
Plasma protein binding = assay type: in vitro ADME; settings: at 5 μM in human plasma (about 70-fold higher than therapeutic concentrations)
[3] = Pharmacokinetics in specific populations; assay type: in vivo, human
Description: Use of lumateperone (e.g., lumateperone tosylate) is not recommended for patients with moderate (Child-Pugh class B) to severe hepatic impairment (Child-Pugh class C). […] No dosage adjustment is recommended for patients with mild hepatic impairment (Child-Pugh A).

CYP1A2 [4] = target: CYP1A2 (Homo sapiens, UniProt P05177); test: In vitro CYP inhibition; assay type: in vitro ADME
OCT2 = OCT2 (Homo sapiens, UniProt O15244); test: In vitro transporter inhibition; assay type: in vitro ADME
CYP2D6 = CYP2D6 (Homo sapiens, UniProt P10635); test: In vitro CYP inhibition; assay type: in vitro ADME
[5] = Drug interaction: CYP3A4 substrate midazolam; assay type: in vivo, human; settings: single or multiple doses of lumateperone in patients with schizophrenia
BCRP = BCRP (Homo sapiens, UniProt Q9UNQ0); test: In vitro transporter substrate; assay type: in vitro ADME
CYP2B6 = test: In vitro CYP induction; assay type: in vitro ADME
OATP1B3 = OATP1B3 (Homo sapiens, UniProt Q9NPD5); test: In vitro transporter inhibition; assay type: in vitro ADME
P-gp = P-gp (Homo sapiens, UniProt P08183); test: In vitro transporter substrate; assay type: in vitro ADME
CYP1A2 [6] = test: In vitro CYP induction; assay type: in vitro ADME
[7] = Human mass balance study, 14C-labeled oral dose; assay type: in vivo
[8] = Pharmacokinetic studies (oral, intravenous, food effect)
CYP3A4 = test: In vitro CYP induction; assay type: in vitro ADME
OAT1 = OAT1 (Homo sapiens, UniProt Q4U2R8); test: In vitro transporter inhibition; assay type: in vitro ADME
dopamine D2 receptors = dopamine D2 receptors (Homo sapiens, UniProt P14416); test: Receptor binding affinity, dopamine D2
[9] = Drug interaction: effects of other drugs on lumateperone exposure; parameters: species or system human; settings: in vivo
Description: Such concomitant use should therefore be avoided. Moderate CYP 3A4 inhibitors include amprenavir, ciprofloxacin, cyclosporine, diltiazem, erythromycin, fluconazole, fluvoxamine, and verapamil. Strong CYP 3A4 inhibitors include clarithromycin, grapefruit juice, itraconazole, voriconazole, nefazodone, ritonavir, and nelfinavir.
Such concomitant use should therefore be avoided. CYP 3A4 inducers include carbamazepine, phenytoin, rifampin, St. John's wort, bosentan, efavirenz, etravirine, modafinil, nafcillin, aprepitant, armodafinil, pioglitazone, and prednisone.

histaminergic receptors = test: Receptor binding, histaminergic; settings: at 100 nM
[10] = tested on: elderly subjects with dementia; settings: cited from earlier work
[11] = tested on: patients with stable schizophrenia; test: Uncontrolled open-label trial for up to 1 year; assay type: in vivo, human
Description: A total of 4.7% of patients with normal hemoglobin A1c (<6.5%) at baseline developed elevated levels (>6.5%) post-baseline.

[12] = tested on: adult patients with a diagnosis of schizophrenia; test: Study 2 (NCT02282761), four-week placebo-controlled, PANSS total score; assay type: in vivo, human
Description: Study 2 (NCT02282761) was a four-week, randomized, double-blind, placebo-controlled, multi-center study in adult patients with a diagnosis of schizophrenia according to the DSM-5 criteria. The primary efficacy measure was the PANSS total score. […] Median age was 44 years (range 19 to 60 years); 23% were female, 26% were Caucasian and 66% were African American.

[13] = tested on: adult patients with a diagnosis of schizophrenia; test: Study 1 (NCT01499563), four-week placebo-controlled, PANSS total score; assay type: in vivo, human
Description: Study 1 (NCT01499563) was a four-week, randomized, double-blind, placebo-controlled, multi-center study in adult patients with a diagnosis of schizophrenia according to the DSM-IV-TR criteria. The primary efficacy measure was the Positive and Negative Syndrome Scale (PANSS) total score. The PANSS is a 30-item scale used to measure symptoms of schizophrenia. Each item is rated by a clinician on a seven-point scale. A score of 1 indicates the absence of symptoms, and a score of 7 indicates extremely severe symptoms. The PANSS total score may range from 30 to 210 with higher scores reflecting greater overall symptom severity.
Median age was 42 years (range 20 to 55 years). 17% were female, 19% were Caucasian, and 78% were African American.

[14] = tested on: adult patients with schizophrenia; test: Pooled short-term (4- to 6-week) placebo-controlled schizophrenia trials, safety; assay type: in vivo, human; settings: for Somnolence/Sedation, adverse reaction incidence: placebo 10%, 4-methylbenzenesulfonate
Description: Of these patients, 811 participated in short-term (4- to 6-week), placebo-controlled trials with doses ranging from 14 to 84 mg/day.
In the 4- to 6-week trials, data were collected using the Simpson Angus Scale (SAS) for EPS (total score ranges from 0 to 40), the Barnes Akathisia Rating Scale (BARS) for akathisia (total score ranges from 0 to 14), and the Abnormal Involuntary Movement Scale (AIMS) for dyskinesia (total score ranges from 0 to 28).

[15] = tested on: patients with schizophrenia; test: QTcF four-arm crossover study; assay type: in vivo, human
Description: QTcF interval was evaluated in a randomized, placebo- and active-(moxifloxacin 400 mg) controlled, four-arm crossover study utilizing concentration-QTc effect modeling in 33 patients with schizophrenia.

[16] = 4- to 6-week trials, 60 mg tosylate daily, N = 406, placebo 1%
[17] = 4- to 6-week trials, 60 mg tosylate daily, N = 406, placebo 2%

Sequence of BCRP (Q9UNQ0 whole entry): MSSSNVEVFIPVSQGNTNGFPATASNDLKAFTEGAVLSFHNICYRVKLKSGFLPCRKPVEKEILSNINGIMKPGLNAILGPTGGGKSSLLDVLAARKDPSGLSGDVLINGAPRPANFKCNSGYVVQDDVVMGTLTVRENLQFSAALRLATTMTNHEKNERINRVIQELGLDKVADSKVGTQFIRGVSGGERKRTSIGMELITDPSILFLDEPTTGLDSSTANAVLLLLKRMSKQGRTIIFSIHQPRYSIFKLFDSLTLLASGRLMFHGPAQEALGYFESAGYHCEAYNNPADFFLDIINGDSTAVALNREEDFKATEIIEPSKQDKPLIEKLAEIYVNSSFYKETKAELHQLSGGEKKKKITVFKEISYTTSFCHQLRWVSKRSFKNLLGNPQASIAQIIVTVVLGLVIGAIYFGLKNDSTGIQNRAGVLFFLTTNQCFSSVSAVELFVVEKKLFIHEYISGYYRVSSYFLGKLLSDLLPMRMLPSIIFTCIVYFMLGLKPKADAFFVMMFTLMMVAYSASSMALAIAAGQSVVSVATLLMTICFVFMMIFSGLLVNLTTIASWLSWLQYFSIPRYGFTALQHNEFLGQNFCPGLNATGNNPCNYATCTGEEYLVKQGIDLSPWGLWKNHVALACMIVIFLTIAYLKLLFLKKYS
Sequence of CYP2C9 (P11712 whole entry): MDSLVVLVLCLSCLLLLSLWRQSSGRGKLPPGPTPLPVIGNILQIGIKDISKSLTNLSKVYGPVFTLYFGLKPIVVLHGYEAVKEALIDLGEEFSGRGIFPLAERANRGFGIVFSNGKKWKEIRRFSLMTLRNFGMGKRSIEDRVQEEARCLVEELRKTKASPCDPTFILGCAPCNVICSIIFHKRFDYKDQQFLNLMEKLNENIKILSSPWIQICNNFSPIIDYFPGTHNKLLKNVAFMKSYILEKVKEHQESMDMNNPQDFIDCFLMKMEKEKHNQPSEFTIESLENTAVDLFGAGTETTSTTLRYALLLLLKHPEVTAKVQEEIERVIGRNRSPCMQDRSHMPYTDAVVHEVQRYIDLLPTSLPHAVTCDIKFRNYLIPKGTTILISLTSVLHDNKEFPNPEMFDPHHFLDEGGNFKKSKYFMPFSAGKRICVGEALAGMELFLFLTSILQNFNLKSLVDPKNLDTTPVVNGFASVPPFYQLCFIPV
Sequence of CYP1A2 (Homo sapiens, UniProt P05177) (P05177 whole entry): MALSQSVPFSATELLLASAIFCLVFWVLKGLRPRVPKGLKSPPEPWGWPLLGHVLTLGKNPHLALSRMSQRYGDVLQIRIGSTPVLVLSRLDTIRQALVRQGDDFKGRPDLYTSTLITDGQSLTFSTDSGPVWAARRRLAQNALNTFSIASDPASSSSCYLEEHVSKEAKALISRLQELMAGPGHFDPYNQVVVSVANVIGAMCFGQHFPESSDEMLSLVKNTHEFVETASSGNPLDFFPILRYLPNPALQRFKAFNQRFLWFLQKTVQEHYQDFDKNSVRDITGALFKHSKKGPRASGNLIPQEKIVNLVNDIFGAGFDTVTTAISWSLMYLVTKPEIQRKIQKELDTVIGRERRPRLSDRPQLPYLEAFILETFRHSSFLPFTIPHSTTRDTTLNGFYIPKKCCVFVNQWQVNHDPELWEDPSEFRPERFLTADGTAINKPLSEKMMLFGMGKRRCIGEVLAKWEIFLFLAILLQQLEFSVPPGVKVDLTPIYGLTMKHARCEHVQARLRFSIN
Sequence of OCT2 (O15244 whole entry): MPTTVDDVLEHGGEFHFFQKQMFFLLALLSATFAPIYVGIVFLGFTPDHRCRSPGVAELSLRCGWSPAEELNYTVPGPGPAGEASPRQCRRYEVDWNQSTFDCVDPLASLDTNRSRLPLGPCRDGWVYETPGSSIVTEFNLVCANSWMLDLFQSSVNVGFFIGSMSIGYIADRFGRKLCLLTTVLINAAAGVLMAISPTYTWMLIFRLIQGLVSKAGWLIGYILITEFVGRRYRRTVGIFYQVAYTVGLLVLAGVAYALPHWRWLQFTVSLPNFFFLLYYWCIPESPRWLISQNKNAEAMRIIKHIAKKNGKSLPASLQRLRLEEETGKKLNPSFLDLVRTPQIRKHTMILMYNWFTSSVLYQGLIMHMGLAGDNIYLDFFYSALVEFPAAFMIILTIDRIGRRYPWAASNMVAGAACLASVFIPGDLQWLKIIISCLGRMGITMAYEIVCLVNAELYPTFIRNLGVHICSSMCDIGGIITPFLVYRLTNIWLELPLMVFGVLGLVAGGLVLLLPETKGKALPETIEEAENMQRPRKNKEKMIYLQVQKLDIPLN
Sequence of CYP2C19 (P33261 whole entry): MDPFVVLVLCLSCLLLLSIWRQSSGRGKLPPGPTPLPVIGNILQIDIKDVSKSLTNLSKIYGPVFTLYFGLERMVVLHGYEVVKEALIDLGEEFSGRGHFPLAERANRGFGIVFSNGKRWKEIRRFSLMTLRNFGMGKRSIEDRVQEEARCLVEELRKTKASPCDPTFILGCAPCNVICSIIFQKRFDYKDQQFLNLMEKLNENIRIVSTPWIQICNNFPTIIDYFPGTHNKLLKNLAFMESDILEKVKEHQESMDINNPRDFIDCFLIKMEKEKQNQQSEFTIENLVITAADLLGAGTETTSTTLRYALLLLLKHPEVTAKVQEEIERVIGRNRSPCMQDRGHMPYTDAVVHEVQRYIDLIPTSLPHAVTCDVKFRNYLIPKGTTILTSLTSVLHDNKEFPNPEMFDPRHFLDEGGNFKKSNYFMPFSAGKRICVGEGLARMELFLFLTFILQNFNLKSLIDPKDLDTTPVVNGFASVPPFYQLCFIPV
Sequence of P-gp (P08183 whole entry): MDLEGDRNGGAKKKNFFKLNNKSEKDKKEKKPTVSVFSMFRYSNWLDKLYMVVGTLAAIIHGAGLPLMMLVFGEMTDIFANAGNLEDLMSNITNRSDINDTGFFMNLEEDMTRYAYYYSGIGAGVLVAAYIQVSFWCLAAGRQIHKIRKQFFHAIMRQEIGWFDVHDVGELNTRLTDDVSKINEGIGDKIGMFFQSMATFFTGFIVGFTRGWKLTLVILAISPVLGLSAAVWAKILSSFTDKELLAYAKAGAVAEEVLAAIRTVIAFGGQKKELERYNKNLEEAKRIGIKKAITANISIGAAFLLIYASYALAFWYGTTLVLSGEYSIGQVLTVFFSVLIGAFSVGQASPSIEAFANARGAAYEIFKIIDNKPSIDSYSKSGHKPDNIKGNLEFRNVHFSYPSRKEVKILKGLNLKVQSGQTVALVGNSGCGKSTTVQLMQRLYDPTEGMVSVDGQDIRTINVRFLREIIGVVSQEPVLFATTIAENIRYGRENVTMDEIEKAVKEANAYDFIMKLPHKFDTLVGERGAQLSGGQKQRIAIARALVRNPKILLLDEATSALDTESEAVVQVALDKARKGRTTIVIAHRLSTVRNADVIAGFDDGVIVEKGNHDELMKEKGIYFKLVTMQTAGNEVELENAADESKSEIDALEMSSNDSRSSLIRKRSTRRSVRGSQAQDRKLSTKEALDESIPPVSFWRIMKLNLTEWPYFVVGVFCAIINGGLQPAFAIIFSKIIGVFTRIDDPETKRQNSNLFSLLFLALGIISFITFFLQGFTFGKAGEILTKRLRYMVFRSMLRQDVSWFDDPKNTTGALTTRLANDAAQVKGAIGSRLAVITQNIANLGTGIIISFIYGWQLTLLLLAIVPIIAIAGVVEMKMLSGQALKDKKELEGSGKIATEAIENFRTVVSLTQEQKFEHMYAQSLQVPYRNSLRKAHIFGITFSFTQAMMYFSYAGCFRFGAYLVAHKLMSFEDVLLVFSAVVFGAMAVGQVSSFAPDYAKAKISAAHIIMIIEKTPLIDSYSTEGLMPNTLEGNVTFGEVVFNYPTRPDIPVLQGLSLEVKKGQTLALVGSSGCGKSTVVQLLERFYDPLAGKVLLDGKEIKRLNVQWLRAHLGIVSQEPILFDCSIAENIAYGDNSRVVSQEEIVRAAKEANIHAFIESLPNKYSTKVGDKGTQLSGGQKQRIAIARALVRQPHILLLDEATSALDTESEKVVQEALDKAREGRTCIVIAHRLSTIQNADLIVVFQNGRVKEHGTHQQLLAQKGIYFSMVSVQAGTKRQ
Sequence of dopamine D2 receptors (P14416 whole entry): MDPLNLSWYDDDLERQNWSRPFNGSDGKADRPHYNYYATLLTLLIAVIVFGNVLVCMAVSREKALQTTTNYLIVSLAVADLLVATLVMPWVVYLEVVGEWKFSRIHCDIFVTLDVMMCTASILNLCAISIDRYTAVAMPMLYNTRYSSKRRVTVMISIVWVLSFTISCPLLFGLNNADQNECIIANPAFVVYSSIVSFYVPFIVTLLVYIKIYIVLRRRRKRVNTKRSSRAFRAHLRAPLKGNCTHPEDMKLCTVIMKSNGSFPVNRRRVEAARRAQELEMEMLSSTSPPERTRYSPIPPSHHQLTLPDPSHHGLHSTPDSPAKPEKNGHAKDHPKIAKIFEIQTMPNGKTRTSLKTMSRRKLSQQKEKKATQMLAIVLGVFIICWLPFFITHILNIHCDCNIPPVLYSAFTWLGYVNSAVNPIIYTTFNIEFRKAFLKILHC
Sequence of OAT1 (Q4U2R8 whole entry): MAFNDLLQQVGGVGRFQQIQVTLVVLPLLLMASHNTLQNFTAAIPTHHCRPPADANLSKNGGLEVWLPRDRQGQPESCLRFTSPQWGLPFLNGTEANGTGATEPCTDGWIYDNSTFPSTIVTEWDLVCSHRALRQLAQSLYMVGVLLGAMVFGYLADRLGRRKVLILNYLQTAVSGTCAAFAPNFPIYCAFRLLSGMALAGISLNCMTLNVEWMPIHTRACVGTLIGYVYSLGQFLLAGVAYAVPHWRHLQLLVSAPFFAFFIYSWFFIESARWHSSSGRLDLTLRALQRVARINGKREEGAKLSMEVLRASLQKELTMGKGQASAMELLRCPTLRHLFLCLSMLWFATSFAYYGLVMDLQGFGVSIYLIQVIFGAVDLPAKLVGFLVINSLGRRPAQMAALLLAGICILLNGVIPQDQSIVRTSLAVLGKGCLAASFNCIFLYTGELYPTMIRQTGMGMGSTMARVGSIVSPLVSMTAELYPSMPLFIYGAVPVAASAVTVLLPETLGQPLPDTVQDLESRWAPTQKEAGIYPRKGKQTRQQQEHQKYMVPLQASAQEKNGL

SMILES: CN1CCN2c3c(cccc31)[C@@H]1CN(CCCC(=O)c3ccc(F)cc3)CC[C@@H]12 [Lumateperone, 4-((6bR,10aS)-3-methyl-2,3,6b,9,10,10a-hexahydro-1H,7H-pyrido[3′,4′: 4,5]pyrrolo[1,2,3-de]quinoxalin-8-yl)-1-(4-fluoro-phenyl)-butan-1-one]
- inhibition of OATS [1]: little to no inhibition
- inhibition of CYP2C9 (CYP2C9): little to no inhibition
- inhibition of CYP2C19 (CYP2C19): little to no inhibition
- inhibition, muscarinic receptors (muscarinic receptors): less than 50%
- enzymes involved in metabolism [2]: involved in the metabolism
- inhibition of OATP1B1 (OATP1B1): little to no inhibition
- fraction unbound at 5 μM (Plasma protein binding): 0.026
- exposure in patients with moderate and severe hepatic impairment ([3]; Child-Pugh class B and C): higher exposure
- differences in pharmacokinetics based on age, sex, or race ([3]; in vivo): No clinically significant differences
- inhibition of CYP1A2 (CYP1A2 [4]): little to no inhibition
- inhibition of OCT2 (OCT2): little to no inhibition
- inhibition of CYP2D6 (CYP2D6): little to no inhibition
- effect on pharmacokinetics of midazolam (CYP3A4 substrate) or its metabolite 1-hydroxymidazolam [5]: No clinically significant differences
- BCRP substrate (BCRP): did not appear to be
- induction of CYP2B6 (CYP2B6): no induction
- inhibition of OATP1B3 (OATP1B3): little to no inhibition
- P-gp substrate (P-gp): did not appear to be
- induction of CYP1A2 (CYP1A2 [6]): no induction
- lumateperone share of total plasma radioactivity ([7]; after a single 14C-labeled oral dose): about 2.8%
- dose excreted as unchanged lumateperone in the urine ([7]; human mass balance study): Less than 1%
- metabolites identified in vivo ([7]; in vivo): more than twenty
- increase of mean AUC by food ([8]; high-fat meal): 9%
- lowering of mean Cmax by food ([8]; high-fat meal): 33%
- Vd ([8]; human, in vivo, iv): ~4.1 L/kg
- clearance ([8]; human, in vivo, iv): ~465 mL/min
- half-life ([8]; human, in vivo, iv): ~18 h
- bioavailability ([8]; human, plasma, oral): ~4.4%
- Tmax ([8]; human, plasma, oral, delay of median Tmax by food, high-fat meal): ~1 h
- Tmax ([8]; human, plasma, oral, median Tmax, fasted state): 1 h
- Tmax ([8]; human, plasma, oral, median Tmax, in the presence of food): 2 h
- increase in steady-state exposure with dose ([8]; range of 21 mg to 56 mg): approximately dose-proportional
- induction of CYP3A4 (CYP3A4): no induction
- inhibition of OAT1 (OAT1): little to no inhibition
- Ki (dopamine D2 receptors): 0.032 µM
- effect of concomitant CYP3A4 inducers on lumateperone exposure [9]: decreases the exposure
- effect of concomitant moderate or strong CYP3A4 inhibitors on lumateperone exposure [9]: increases lumateperone exposure
- inhibition, histaminergic receptors (histaminergic receptors): less than 50%

SMILES: Cc1cc2c(s1)Nc1ccccc1N=C2N1CCN(C)CC1 [olanzapine]
- incidence of stroke and transient ischemic attack, including fatal stroke, versus placebo [10]: higher incidence

SMILES: CN1CCN2c3c(cccc31)[C@@H]1CN(CCCC(=O)c3ccc(F)cc3)CC[C@@H]12.Cc1ccc(S(=O)(=O)O)cc1 [Lumateperone tosylate, 4-((6bR,10aS)-3-methyl-2,3,6b,9,10,10a-hexahydro-1H,7H-pyrido[3′,4′: 4,5]pyrrolo[1,2,3-de]quinoxalin-8-yl)-1-(4-fluoro-phenyl)-butan-1-one 4-methylbenzenesulfonate]
- mean change in body weight ([11]; Day 175, SD 5.6): approximately −2 kg
- mean change in body weight ([11]; Day 350, SD 7.4): approximately −3.2 kg
- patients with normal hemoglobin A1c (<6.5%) at baseline who developed elevated levels (>6.5%) post-baseline ([11]; up to 1 year): 4.7%
- treatment effect on PANSS total score vs. placebo ([12]; 28 mg (two-thirds of the recommended daily dose)): not statistically significant
- reduction from baseline to Day 28 in PANSS total score compared to placebo ([12]; 42 mg): statistically significant reduction
- PANSS Total, Placebo-subtracted Difference (95% CI) ([12]; 42 mg, Day 28, CI −7.8, −0.6): −4.2
- PANSS Total, LS Mean Change from Baseline (SE) ([12]; 42 mg, Day 28, N 150, placebo −10.3 (1.3)): −14.5 (1.3)
- reduction from baseline to Day 28 in PANSS total score compared to placebo ([13]; 42 mg): statistically significant reduction
- PANSS Total, Placebo-subtracted Difference (95% CI) ([13]; 42 mg, Day 28, CI −10.5, −1.1): −5.8
- PANSS Total, LS Mean Change from Baseline (SE) ([13]; 42 mg, Day 28, N 84, placebo −7.4 (1.7)): −13.2 (1.7)
- treatment effect on PANSS total score vs. placebo ([13]; 84 mg (two times the recommended daily dose)): not statistically significant
- frequency of reported events related to extrapyramidal symptoms (EPS) ([14]; 4- to 6-week placebo-controlled studies, placebo 6.3%): 6.7%
- Creatine Phosphokinase Increased, adverse reaction incidence [14, 16]: 4%
- Fatigue, adverse reaction incidence [14, 16]: 3%
- Hepatic Enzymes Increased (ALT, AST, “hepatic enzymes” increased, or liver function tests abnormal), adverse reaction incidence [14, 16]: 2%
- Dry Mouth, adverse reaction incidence [14, 17]: 6%
- Vomiting, adverse reaction incidence [14, 17]: 3%
- Dizziness (dizziness, dizziness postural), adverse reaction incidence ([14]; 4- to 6-week trials, 60 mg tosylate daily, N = 406, placebo 3%): 5%
- Nausea, adverse reaction incidence ([14]; 4- to 6-week trials, 60 mg tosylate daily, N = 406, placebo 5%): 9%
- Somnolence/Sedation, adverse reaction incidence ([14]; 4- to 6-week trials, 60 mg tosylate daily, N = 406): 24%
- Somnolence/Sedation, adverse reaction incidence ([14]; 4- to 6-week trials, 60 mg tosylate daily, N = 406, listed as lumateperone tosylate): 24%
- mean change from baseline, Barnes Akathisia Rating Scale (BARS) ([14]; 4- to 6-week trials, score range 0 to 14, placebo 0): −0.1
- mean change from baseline, Abnormal Involuntary Movement Scale (AIMS) ([14]; 4- to 6-week trials, score range 0 to 28, placebo 0): 0.1
- mean change from baseline, Simpson Angus Scale (SAS) ([14]; 4- to 6-week trials, score range 0 to 40, placebo 0): 0.1
- frequency of orthostatic hypotension ([14]; clinical trials, placebo 0%): 0.7%
- rate of syncope ([14]; clinical trials, placebo 0.2%): 0.2%
- rate of any single adverse reaction leading to discontinuation ([14]; none occurred at >2%): ≤ 2%
- mean changes from baseline and proportion of subjects with increase in weight ≥7% from baseline to end of study, versus placebo ([14]; pooled placebo-controlled trials): similar
- placebo-corrected change from baseline QTcF (90% two-sided upper confidence interval) ([15]; 42 mg orally once daily for 5 days): 4.9 (8.9) ms
- placebo-corrected change from baseline QTcF (90% two-sided upper confidence interval) ([15]; supratherapeutic dose 126 mg orally once daily for 5 days): 15.8 (19.8) ms

SMILES: O=C1CCc2ccc(OCCCCN3CCN(c4cccc(Cl)c4Cl)CC3)cc2N1 [aripiprazole]
- incidence of stroke and transient ischemic attack, including fatal stroke, versus placebo [10]: higher incidence

SMILES: Cc1nc2n(c(=O)c1CCN1CCC(c3noc4cc(F)ccc34)CC1)CCCC2 [risperidone]
- incidence of stroke and transient ischemic attack, including fatal stroke, versus placebo [10]: higher incidence
